Data: patent US12624398B2, “Use of long non-coding RNAs in medulloblastoma” (THE JOHNS HOPKINS UNIVERSITY, priority 2019, dated 2026)
l = locked nucleic acid (LNA); d = 2'-deoxy (DNA)

Experiments:
lnc-HLX-2-7 [1] = assay: qRT-PCR of lnc-HLX-2-7 expression in MB cells; format: cell-based, human
Experimental: (§1) Cell culture. Cell lines were authenticated using single tandem repeat profiling. D425 Med cells were cultured in DMEM/F12 with 10% serum and 1% glutamate/penicillin/streptomycin. MED211 cells were cultured in medium composed of 30% Ham's F12/70% DMEM, 1% antibiotic antimycotic, […] B27 supplement, 5 μg/mL heparin, 20 ng/mL EGF, and 20 ng/mL FGF2. DAOY cells were cultured in DMEM with 10% serum and 1% glutamate/penicillin/streptomycin. All cells were grown in a humidified incubator at 37° C., 5% CO2. For blocking of BET bromodomain protein in D425 Med and MED211 cells, JQ1 (SML1524-5MG, Sigma Aldrich, St. Louis, MO) was added, and the medium was changed every other day.
(§2) Quantitative real-time PCR (qRT-PCR). Total RNA was purified using the Direct-zol RNA Miniprep kit (Zymo Research, Irvine, CA). To obtain RNA from xenografts, tumor tissues were pulverized and then used for purification.
(§3) ASO-lnc-HLX2-7. Antisense oligonucleotides (ASOs) were designed using the Integrated DNA Technologies (IDT) Antisense Design Tool (IDT, Coralville, IA). ASO knockdowns were performed with 50 nM (final concentration) locked nucleic acid (LNA) GapmeRs transfected with Lipofectamine 3000 (Thermo Fisher Scientific, Waltham, MA). All ASOs were modified with phosphorothioate (PS) linkages. The following ASOs were used: ASO targeting lnc-HLX-2-7 (ASO-lnc-HLX-2-7): +T*+G*+A*G*A*G*A*T*T*A*A*T*C*T*A*G*A*T*+T*+G*+C (SEQ ID NO:240) and control ASO targeting luciferase (ASO-Luc): +T*+C*+G*A*A*G*T*A*C*T*C*A*G*C*G*T*A*A*+G*+T*+T (SEQ ID NO:241). The PS linkages are indicated with * and LNA-modified oligonucleotides are indicated with +.
(§4) siRNA-mediated knockdown of HLX, MYC, and MY CN. siRNAs targeting HLX (catalog no. 4427037, ID: s6639) and MYC (catalog no. 4427037, ID: s9129) were purchased from Thermo Fisher Scientific. siRNAs were transfected at 20 nM for 48 h using Lipofectamine RNAiMAX (Thermo Fisher Scientific). The efficiency was determined by qRT-PCR.

MYC = assay: qRT-PCR of MYC expression in MB cells; format: cell-based, human; settings: JQ1 100 or 300 nM, relative to DMSO-treated cells
Experimental: as §1, §2, §4

D425 Med cells [2] = assay: Cell proliferation, living cells counted by trypan blue staining; format: cell-based, human
Experimental: as §1
(§5) Cell proliferation, apoptosis, and 3D colony formation assays. Cells were plated in 96-well plates at 5×10^3 cells per well in triplicate. After 72 hours of ASO or siRNA transfection, living cells were counted by trypan blue staining. Apoptotic cells were analyzed using a GloMax luminometer (Promega, Fitchburg, WI) with conditions optimized for the Caspase-Glo 3/7 Assay. For the 3D colony formation assay, cells were seeded in 24-well plates at a density of 1×10^2 cells/well and were stained with crystal violet solution approximately 14 days later. Colony number was determined using the EVE cell counter (Nano Entek, Pleasanton, CA), and staining intensity was analyzed using ImageJ software.

MED211 cells [3] = assay: as above; format: cell-based, human
Experimental: as §1, §5

lnc-HLX-2-7 [4] = assay: qPCR of lnc-HLX-2-7 and MYC expression in JQ1-treated mouse xenografts; format: in vivo, NOD-SCID mice; settings: JQ1 50 mg/kg intraperitoneal on alternating days for 14 days vs DMSO
Excerpt: as §2
Medulloblastoma xenografts (intracranial). All mouse studies were approved and performed in accordance with the policies and regulations of the Animal Care and Use Committee of Johns Hopkins University. Intracranial MB xenografts were established by injecting D425 Med cells, MED211 cells, D425 Med cells with lnc-HLX-2-7 deleted, and MED211 cells with lnc-HLX-2-7 deleted into the cerebellums of NOD-SCID mice (Jackson Laboratory, Bar Harbor, ME). Cerebellar coordinates were −2 mm from lambda, +1 mm laterally, and 1.5 mm deep. Seven days after injection, mice were administered JQ1 (50 mg/kg) or vehicle alone (DMSO) on alternating days via intraperitoneal injection for 14 days. Tumor growth was evaluated by weekly bioluminescence imaging using an in vivo spectral imaging system (IVIS Lumina II, Xenogen, Alameda, CA).

[5] = system: various types of cancer including MB; settings: by inhibiting BRD4-mediated regulation of MYC; previous studies; cited from earlier work
HLX = assay: qRT-PCR of HLX expression in MB cells; format: cell-based, human; settings: ASO 50 nM
Experimental: as §2, §3, §4

D425 Med cells [6] = assay: Apoptosis, Caspase-Glo 3/7 Assay; format: cell-based, human; settings: ASO 50 nM, p<0.01
Experimental: as §5

MED211 cells [7] = assay: Apoptosis, Caspase-Glo 3/7 Assay; format: cell-based, human; settings: ASO 50 nM, p<0.01
Experimental: as §5

**Q.** Which results are given for `Cc1sc2c(c1C)C(c1ccc(Cl)cc1)=N[C@@H](CC(=O)OC(C)(C)C)c1nnc(C)n1-2` [JQ1]?
**A.** lnc-HLX-2-7 expression (lnc-HLX-2-7 [1]; D425 Med cells, JQ1 100 or 300 nM, relative to DMSO-treated cells): downregulated; lnc-HLX-2-7 expression (lnc-HLX-2-7 [1]; MED211 cells, JQ1 100 or 300 nM, relative to DMSO-treated cells): downregulated; lnc-HLX2-7 expression (summary statement) (lnc-HLX-2-7 [1]; no cell line named at the place): reduced; MYC expression (MYC; D425 Med cells): downregulated; MYC expression (MYC; MED211 cells): downregulated; cell growth (viable cell numbers) (D425 Med cells [2]; D425 Med cells treated with JQ1, relative to DMSO (FIG. 11B), suppressed by lnc-HLX-2-7 overexpression): cell growth inhibition; cell growth (viable cell numbers) (MED211 cells [3]; MED211 cells treated with JQ1, relative to DMSO (FIG. 11B), suppressed by lnc-HLX-2-7 overexpression): cell growth inhibition; lnc-HLX2-7 expression in vivo (lnc-HLX-2-7 [4]): downregulation; cancer cell proliferation [5]: effectively suppresses

**Q.** Which results are given for “ASO-lnc-HLX-2-7: LNA GapmeR antisense oligonucleotide with phosphorothioate linkages targeting lnc-HLX-2-7: +T*+G*+A*G*A*G*A*T*T*A*A*T*C*T*A*G*A*T*+T*+G*+C (antisense TGAGAGATTAATCTAGATTGC; sugars from the 5' end l3 d15 l3, all phosphorothioate, methylation of C not given here)”?
**A.** lnc-HLX-2-7 expression (lnc-HLX-2-7 [1]; D425 Med cells, ASO 50 nM, compared to control ASO-luc, p<0.01): significantly decreased; lnc-HLX-2-7 expression (lnc-HLX-2-7 [1]; MED211 cells, ASO 50 nM, compared to control ASO-luc, p<0.01): significantly decreased; HLX expression (HLX; D425 Med cells): significantly reduced; HLX expression (HLX; MED211 cells): significantly reduced; MB cell growth (viable cell numbers) (D425 Med cells [2]; D425 Med cells, ASO 50 nM, 72 hours after transfection, p<0.01): significantly suppressed; MB cell growth (viable cell numbers) (MED211 cells [3]; MED211 cells, ASO 50 nM, 72 hours after transfection, p<0.01): significantly suppressed; apoptosis (apoptotic cell numbers) (D425 Med cells [6]): induced apoptosis; apoptosis (apoptotic cell numbers) (MED211 cells [7]): induced apoptosis
